Publication PMC11562385 (RSC Chemical Biology, 2024)
Peptide text beside a SMILES is read from it.

Key:
[1] = target: T1, PD1:PDL1 interaction (Homo sapiens, UniProt Q15116); assay: PD1/PDL1 immunoblocking ELISA (BPS Bioscience kit cat # 72005); format: binding; conditions: for LE (ligand efficiency): LE = -RTln(EC50)/HA, HA = non-hydrogen atoms omitting the strap (RWV•••VWE)
T1 construct: purchased BPS Bioscience 72005

[2] = Variable-temperature CD melting curves (CD-melts at 228±2 nm and 202±2 nm), individual and global two-state fits; format: physicochemical; conditions: for ΔGF0: CD-melt at 228±2 nm, individual two-state Gibbs-Helmholtz fit (Origin 9.0), phosphate buffer 15 mM pH 6.5 ± MeOH; for ΔGF0 / DHm (fitted value, results from OriginPro) / Tm (fitted value, results from OriginPro): 0-95 °C; for Tm / Hairpin %-fold 291K / Hairpin %-fold 310K: Table S5, individual fit; for Tm: 228±2 nm; for -TΔSF0 / ΔCpF0 / ΔHF0 / ΔHm: as E16; for VT-CD %-fold: folded fraction (χF) at 25 °C from CD-melts, (R) regular / (B) bulged fold; for VT-CD %-fold / VT-CD Tm (°C): phosphate buffer 15 mM pH 6.5, up to 20% MeOH; for Tm 228 nm Indiv.: exciton band 228 nm; for VT-CD Tm (°C): melting temperature from CD-melts; for DHm (fitted value, results from OriginPro) / Tm (fitted value, results from OriginPro): two-state fit of the CD melt θ - θcoil(95) vs T, peptide c 3.2e-5 to 5e-5 M; for %fold 291K: fraction folded at 291 K from the two-state fit of the CD melt
Procedure, shortened: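 Far-UV CD melts (0 to 95 °C) at 15-120 µM peptide in 15 mM phosphate buffer, concentration set by Trp/Tyr absorbance at 280 nm; CD-exciton intensity taken as %-folding probe. Melting curves fitted individually and globally to a two-state model.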

[3] = target: T2, cell surface PD1 on CD3+/CD8+ cells of h-PBMCs (Homo sapiens, UniProt Q15116); assay: In cellulo PD1 blockade on h-PBMCs by flow cytometry; format: cell-based; conditions: h-PBMC cultures, 30 h, n = 3
T2 construct: endogenous in cells; host or cells: healthy human PBMCs (CD45+, CD3+/CD8+ gated)
T2 sequence (Q15116 25-288): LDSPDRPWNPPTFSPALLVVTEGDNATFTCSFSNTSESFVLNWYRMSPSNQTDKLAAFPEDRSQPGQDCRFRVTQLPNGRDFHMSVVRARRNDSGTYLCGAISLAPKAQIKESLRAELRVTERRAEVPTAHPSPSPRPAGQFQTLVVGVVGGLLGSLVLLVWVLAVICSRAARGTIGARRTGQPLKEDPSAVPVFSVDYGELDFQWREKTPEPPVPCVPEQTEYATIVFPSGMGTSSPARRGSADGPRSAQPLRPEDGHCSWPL
Source text: (§1) Then, an ex vivo immune cell culture system using h-PBMCs and exhausted PBMCs from a melanoma patient (e-PBMCs) was used to determine the efficacy of selected ADAPTin peptides on T-effector cells (Fig. 6).[91,92] T-cell exhaustion typically leads to a reduction in cytokine release, cytotoxic activity, as well as slower T-cell proliferation.

[4] = system: e-PBMCs; assay: Ex vivo cytokine secretion assay, exhausted PBMCs from a melanoma patient; format: cell-based, human; conditions: e-PBMC, 6 h, LEGENDplex
Method: as §1, with “proliferation. […] Cytokines concentrations measured at 72 h post-treatment were in most cases over the detection limit range further indicating the effectiveness of our compounds over time.” for “proliferation.”
Non-covalent ADAPTin2c/2p were used as negative control. (A) Levels of inflammatory cytokines measured by flow-cytometry (FACS) after 6 h incubation with electrophilic ADAPTins. Error bars indicate the mean ± SD, (n = 3). (B) Rescue of exhausted PBMCs from a melanoma patient. Levels of inflammatory cytokines and granule-associated proteins released (6 h) measured by FACS (healthy and untreated exhausted PBMCs: h-/e-PBMCs used as positive and negative controls respectively). Error bars indicate the avg ± SD, (n = 2).
Ex Vivo Cytokine Secretion Assay.
Normal PBMCs (from healthy donor) and exhausted PBMCs isolated from the blood sample of a melanoma patient were activated for 48 h before using anti-CD2/28 monoclonal antibodies with IL-2 (2 ng/mL) as mentioned above. After 48 h, PBMCs were washed and incubated with a series of ADAPTins for 6 h. After treatment, media supernatant was collected for cytokine release measurements using the LEGENDplex™ human CD8/NK (13-plex) panel (BioLegend, cat no. 740267). Briefly, samples were mixed with assay buffer and human (13-plex) mixed-beads and plated on the 96-well filter plate. Samples were incubated for 2 h at room temperature, washed, and resuspended beads with detection antibodies according to manufacturer's protocol. Samples were transferred to a 96-well plate to read on a flow cytometer. The flow cytometer and data acquisition software setting were used according to the manufacturer's instructions. Flow analysis was obtained using a CytoFLEX-S flow cytometer equipped with 3 lasers (488 nm blue, 405 nm violet, and 638 nm from Beckman).
Table S9. Raw data of cytokine secretion assay (n=2).
Cytokine assay IL-2 TNF-α IFN-γ Perforin […]

T1 sequence (Q15116 25-167 limits assumed): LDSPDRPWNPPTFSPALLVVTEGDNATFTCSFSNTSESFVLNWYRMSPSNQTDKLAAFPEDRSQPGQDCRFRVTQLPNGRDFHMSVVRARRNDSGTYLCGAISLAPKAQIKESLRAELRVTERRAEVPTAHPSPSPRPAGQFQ

Row | Molecule | LE (ligand efficiency) [1] | ΔGF0 [2] | Tm [2] | Hairpin %-fold 291K ([2]; 291 K) | Hairpin %-fold 310K [2] | -TΔSF0 [2] | ΔCpF0 [2] | ΔHF0 [2] | ΔHm [2] | VT-CD %-fold [2] | χF (291 K) 228 nm Glob. ([2]; global fit, 228 nm, 291 K) | χF (291 K) 228 nm Indiv. ([2]; individual fit, 228 nm, 291 K) | Tm 228 nm Indiv. ([2]; individual fit) | VT-CD Tm (°C) [2] | DHm (fitted value, results from OriginPro) ([2]; l 0.1 cm) | Tm (fitted value, results from OriginPro) ([2]; l 0.1 cm) | further results
1 | CSCC[C@H](NC(=O)CNC(=O)[C@H](CCC(=O)O)NC(=O)[C@H](CCCNC(=N)N)NC(=O)[C@H](C)NC(=O)[C@@H](NC(=O)[C@H](Cc1c[nH]c2ccccc12)NC(=O)[C@@H](N)CCCNC(=N)N)C(C)C)C(=O)N[C@@H](CC(N)=O)C(=O)N[C@H](C(=O)N[C@@H](CC(=O)O)C(=O)N[C@@H](Cc1c[nH]c2ccccc12)C(=O)N[C@@H](Cc1ccc(O)cc1)C(=O)N[C@@H](Cc1ccccc1)C(=O)N[C@@H](CC(=O)O)C(=O)N[C@@H](Cc1ccc(O)cc1)C(=O)N[C@@H](Cc1c[nH]c2ccccc12)C(=O)N[C@@H](Cc1c[nH]cn1)C(=O)N[C@@H](Cc1c[nH]c2ccccc12)C(=O)N[C@@H](CCC(=O)O)C(=O)O)[C@@H](C)O [2n] (H-RWVAREGMNTDWYFDYWHWE-OH) | 0.07 | 0.46 ± 0.01 kcal/mol | -5.1 oC | 36 ± 2% | 23 ± 2% | 6.11 ± 0.19 kcal/mol | -97 ± 14 cal.deg-1.mol-1 | -5.65 ± 0.18 kcal/mol | -2.75 ± 0.80 kcal/mol | 36% (B) | 0% | 36% | -5.1 oC | <0 °C | -2.75455 kcal/mol | 268.058 K | –
2 | CSCC[C@H](NC(=O)CNC(=O)[C@H](CCC(=O)O)NC(=O)[C@H](CCCNC(=N)N)NC(=O)[C@H](C)NC(=O)[C@@H](NC(=O)[C@H](Cc1c[nH]c2ccccc12)NC(=O)[C@@H](N)CCCNC(=N)N)C(C)C)C(=O)N[C@@H](CC(N)=O)C(=O)N[C@H](C(=O)N[C@@H](CC(=O)O)C(=O)NCC(=O)N[C@@H](Cc1ccc(O)cc1)C(=O)N[C@@H](Cc1ccccc1)C(=O)N[C@@H](CC(=O)O)C(=O)N[C@@H](Cc1ccc(O)cc1)C(=O)N[C@@H](Cc1c[nH]c2ccccc12)C(=O)N[C@@H](Cc1c[nH]cn1)C(=O)N[C@@H](Cc1c[nH]c2ccccc12)C(=O)N[C@@H](CCC(=O)O)C(=O)O)[C@@H](C)O [2o] (H-RWVAREGMNTDGYFDYWHWE-OH) | 0.07 | 0.47 ± 0.01 kcal/mol | 2.8 oC | 36 ± 1% | 23 ± 1% | 6.45 ± 0.02 kcal/mol | -2 ± 1 cal.deg-1.mol-1 | -5.97 ± 0.01 kcal/mol | -5.93 ± 0.03 kcal/mol | 50% (B) | 47% | 36% | 2.8 oC | 3 °C | -5.92662 kcal/mol | 275.984 K | %fold 291K ([2]; l 0.1 cm): 36%; Tm 228 nm Glob. ([2]; global fit (shared maximum molar ellipticity), 228 nm): 14.6 oC; Tm 202 nm Glob. ([2]; global fit, 202 nm): -18.3 oC; χF (291 K) 202 nm Glob. ([2]; global fit, 202 nm, 291 K): 19%; χF (291 K) 202 nm Indiv. ([2]; individual fit, 202 nm, 291 K): 38%; Tm 202 nm Indiv. ([2]; individual fit, β-bulge band 202 nm): 7.9 oC
3 | CSCC[C@H](NC(=O)CNC(=O)[C@H](CCC(=O)O)NC(=O)[C@H](CCCNC(=N)N)NC(=O)[C@H](C)NC(=O)[C@@H](NC(=O)[C@H](Cc1c[nH]c2ccccc12)NC(=O)[C@@H](N)CCCNC(=N)N)C(C)C)C(=O)N[C@@H](CC(N)=O)C(=O)N[C@H](C(=O)N[C@@H](CC(=O)O)C(=O)NCC(=O)N[C@@H](Cc1ccc(O)cc1)C(=O)N[C@@H](Cc1ccccc1)C(=O)N[C@@H](CC(N)=O)C(=O)N[C@@H](Cc1ccc(O)cc1)C(=O)N[C@@H](Cc1c[nH]c2ccccc12)C(=O)N[C@H](C(=O)N[C@@H](Cc1c[nH]c2ccccc12)C(=O)N[C@@H](CCC(=O)O)C(=O)O)C(C)C)[C@@H](C)O [2p] (H-RWVAREGMNTDGYFNYWVWE-OH) | – | – | – | – | – | – | – | – | – | – | – | – | – | – | – | – | EC50 [1]: 160 nM; PD1 blockade on CD3+/CD8+ T-effector cells [3]: < 20%
4 | CC[C@H](C)[C@H](NC(=O)[C@H](Cc1ccc(O)cc1)NC(=O)[C@H](Cc1c[nH]c2ccccc12)NC(=O)[C@H](Cc1ccc(O)cc1)NC(=O)[C@H](CC(N)=O)NC(=O)CNC(=O)[C@H](Cc1ccc(O)cc1)NC(=O)[C@H](C)NC(=O)[C@H](CCCNC(=N)N)NC(=O)[C@H](C)NC(=O)[C@@H](NC(=O)[C@H](Cc1c[nH]c2ccccc12)NC(=O)[C@@H](N)CCCNC(=N)N)C(C)C)C(=O)N[C@@H](CC(=O)O)C(=O)N[C@H](C(=O)N[C@@H](Cc1c[nH]c2ccccc12)C(=O)N[C@@H](Cc1c[nH]cn1)C(=O)N[C@@H](Cc1c[nH]c2ccccc12)C(=O)N[C@@H](CCC(=O)O)C(=O)O)C(C)C [2q] (H-RWVARAYGNYWYIDVWHWE-OH) | 0.07 | – | – | – | – | – | – | – | – | β-structure | – | – | – | – | – | – | fold by CD signature (in words) ([2]; no hairpin exciton, no fit possible): β-sheet structure
5 | CC[C@H](C)[C@H](NC(=O)[C@H](Cc1ccc(O)cc1)NC(=O)CNC(=O)[C@H](Cc1ccc(O)cc1)NC(=O)[C@H](CC(N)=O)NC(=O)CNC(=O)[C@H](Cc1ccc(O)cc1)NC(=O)[C@H](C)NC(=O)[C@H](CCCNC(=N)N)NC(=O)[C@H](C)NC(=O)[C@@H](NC(=O)[C@H](Cc1c[nH]c2ccccc12)NC(=O)[C@@H](N)CCCNC(=N)N)C(C)C)C(=O)N[C@@H](CC(=O)O)C(=O)N[C@H](C(=O)N[C@@H](Cc1c[nH]c2ccccc12)C(=O)N[C@@H](Cc1c[nH]cn1)C(=O)N[C@@H](Cc1c[nH]c2ccccc12)C(=O)N[C@@H](CCC(=O)O)C(=O)O)C(C)C [2r] (H-RWVARAYGNYGYIDVWHWE-OH) | 0.08 | -1.15 ± 0.01 kcal/mol | 67.6 oC | 91 ± 1% | 80 ± 1% | 7.13 ± 0.3 kcal/mol | -44 ± 9 cal.deg-1.mol-1 | -8.29 ± 0.3 kcal/mol | -10.2 ± 0.2 kcal/mol | 91% (B) | – | – | – | – | – | – | %fold 291K ([2]; c 6.2e-5 M, l 0.1 cm): 91%; DHm (fitted value, OriginPro) ([2]; two-state fit of the CD melt (θ - θcoil(95) vs T, 0-95 °C), l 0.1 cm, enthalpy of folding at Tm): -10.1866 kcal/mol
6 | pembrolizumab: FDA-approved anti-PD1 antibody; 'Pem' = its CDR-H3 loop in Table 1 [reference compound] | – | – | – | – | – | – | – | – | – | – | – | – | – | – | – | – | IFN-γ ([4]; replicate 1): 4359.77 pg/mL; IL-2 ([4]; replicate 1): 0.44 pg/mL; Perforin ([4]; replicate 1): 227.36 pg/mL; TNF-α ([4]; replicate 1): 500.12 pg/mL; IFN-γ ([4]; replicate 2): 7617.66 pg/mL; IL-2 ([4]; replicate 2): 275.42 pg/mL; Perforin ([4]; replicate 2): 438.61 pg/mL; TNF-α ([4]; replicate 2): 1224.22 pg/mL
